What was measured:
hippocampal neurons = assay: Whole cell patch clamp with imposed Cl− load, hippocampal neurons; type: cell-based, Sprague Dawley; conditions: 1 h incubation, 32 mM Cl− load; controls −47.4±2.3
Description: Neuronal Cultures. Hippocampal neurons were prepared from Sprague Dawley E18 embryos and plated at 450,000 per dish and maintained at 37° C. in a humidified 5% CO2 incubator for 10-25 days before experimentation (Lee et al., Nat. Neurosci. 14, 736-743 (2011)).
Neuronal Patch clamp assays. Neuronal cell culture recordings were performed in bath saline at 34° C. For gramicidin perforated-patch experiments, pipettes contained (in mM): 140 KCl and 10 HEPES, pH 7.4 KOH. For whole-cell experiments, pipettes contained (in mM): 115 K-meth-SO^4, 30 KCl, 2 Mg-ATP, 4 Na-ATP, 0.4 Na-GTP, and 10 HEPES, pH 7.4 KOH. Bath saline contained the following (in mM): 140 NaCl, 2.5 KCl, 2.5 CaCl2, 2.5 MgCl2, 10 HEPES, and 11 glucose, pH 7.4 NaOH (Kontou et at, 2021, supra). All compound solutions were applied to cells using a three-barreled 700 μm pipe positioned just above the cell (Warner Instruments). […] All voltages from whole-cell experiments were corrected offline using a calculated liquid junction potential value (13.6 mV) in Clampex (Molecular Devices). For gramicidin perforated-patch experiments, intracellular Cl^− values were back-calculated using measured EGABA values and the Nernst equation: […]
5 min after break-in, an initial EGABA value was determined and the effects of a subsequent 5 min incubation with VU0463271 was assessed.

NKCC1 = biological target: T1, NKCC1 (Homo sapiens, UniProt P55011); assay: Tl+ assay, HEK-293 cells expressing NKCC1; type: cell-based; conditions: read-out: concentration at which effects on NKCC1 were seen (EC50 chart FIG. 1G)
T1 construct: expressed in transfected cells; host or cells: HEK-293
T1 sequence (P55011 1-1212): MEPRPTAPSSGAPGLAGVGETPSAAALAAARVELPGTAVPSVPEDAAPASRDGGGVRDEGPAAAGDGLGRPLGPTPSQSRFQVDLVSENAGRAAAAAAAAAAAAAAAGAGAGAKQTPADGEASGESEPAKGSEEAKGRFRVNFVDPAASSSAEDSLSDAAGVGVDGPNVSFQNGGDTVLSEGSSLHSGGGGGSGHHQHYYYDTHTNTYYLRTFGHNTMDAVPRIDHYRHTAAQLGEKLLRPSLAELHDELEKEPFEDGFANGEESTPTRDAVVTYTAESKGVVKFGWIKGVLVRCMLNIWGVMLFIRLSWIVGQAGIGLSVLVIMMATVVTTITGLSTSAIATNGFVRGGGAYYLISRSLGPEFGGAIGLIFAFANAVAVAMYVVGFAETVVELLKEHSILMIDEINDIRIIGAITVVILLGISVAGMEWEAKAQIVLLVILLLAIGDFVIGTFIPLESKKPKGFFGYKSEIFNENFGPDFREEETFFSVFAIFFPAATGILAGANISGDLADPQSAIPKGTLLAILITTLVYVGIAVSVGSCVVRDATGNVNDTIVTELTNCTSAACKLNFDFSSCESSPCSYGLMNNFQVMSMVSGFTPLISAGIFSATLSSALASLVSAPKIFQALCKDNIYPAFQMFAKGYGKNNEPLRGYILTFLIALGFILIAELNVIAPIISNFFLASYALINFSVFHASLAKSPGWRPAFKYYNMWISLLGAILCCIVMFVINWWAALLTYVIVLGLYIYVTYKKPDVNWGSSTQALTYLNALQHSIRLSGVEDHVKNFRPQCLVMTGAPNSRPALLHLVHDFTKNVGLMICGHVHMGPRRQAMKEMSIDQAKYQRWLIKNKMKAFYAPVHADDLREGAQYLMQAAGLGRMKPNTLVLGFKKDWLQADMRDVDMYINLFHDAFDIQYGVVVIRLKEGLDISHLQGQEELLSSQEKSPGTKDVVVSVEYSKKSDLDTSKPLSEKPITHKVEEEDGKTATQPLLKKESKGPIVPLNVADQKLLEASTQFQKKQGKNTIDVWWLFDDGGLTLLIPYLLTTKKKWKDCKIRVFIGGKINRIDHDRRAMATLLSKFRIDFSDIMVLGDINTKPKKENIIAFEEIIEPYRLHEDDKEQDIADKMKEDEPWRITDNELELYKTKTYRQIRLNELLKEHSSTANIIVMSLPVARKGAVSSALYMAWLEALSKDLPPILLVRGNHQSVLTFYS
Description: FLIPR TI Flux assay. HEK-293 cells were washed with HBSS, and then incubated with loading buffer containing TI sensitive fluorescent dye (https://www.moleculardevices.com), 20 μM bumetanide 20 μM ouabain and 2.5 mM probenecid for 1 h at room temperature (RT) under control conditions or with drugs in the dark using a FlexStation 3 microplate reader (Molecular Devices) and imaged […] for 30 min. Stimulus buffer was added containing 5 mM K^+/0.5 mM Tl^+ and cells were imaged every 1.5 over a 190 second time course The initial rate Tl^+ uptake (Relative Fluorescence Units (RFU) per second) was determined following addition of the stimulus buffer as outlined previously (Conway et at, 2017, supra) (Lee et at, 2022, supra).
Several studies have shown that the activity and plasma membrane accumulation of KCC2 is potentiated via phosphorylation of S940, a process mediated by the activity of protein kinase C and protein phosphatase 1 (Lee et al., 2011, supra; Lee et al., J Biol Chem 282, 29777-29784 (2007); Moore et al., Proc. Natl. Acad. Sci. U.S.A. 115, 10166-10171 (2018); Moore et al., Trends Neurosci. 40, 555-571 (2017); Silayeva et al., Proc. Natl. Acad. Sci. U.S.A. 112, 3523-3528 (2015)). […] Compared to KCC2, effects on KCC3, KCC4, and NKCC1 were only seen at concentrations more than 35-fold that of KCC2 (>100 μM) (FIG. 1G).

brain slices = assay: In vitro seizure assay, brain slices in 0-Mg ACSF, field recording in entorhinal cortex; parameters: species or system mice; conditions: Compound A 1 μM
Text: In vitro seizure assays. […] Slices were then transferred to a Warner Instruments recording chamber and electrodes of 0.5-1 mohm were inserted into layer IIII of the medial entorhinal cortex, several cell layers deep. […] The field recordings were then employed to monitor the development of seizure-like events (SLEs) and their transition to late recurrent discharges (LRDs) which are believed to be analogous to the development of status epilepticus (SE) (Kelley et al., 2016, supra; Moore et al., 2018, supra).

Compound: C[C@@H]1CN(c2nc3c(c(Nc4ccc(C5CCCCC5)cc4)n2)COC3)CCO1 [Compound A, (R)—N-(4-cyclohexylphenyl)-2-(2-methylmorpholino)-5,7-dihydrofuro[3,4-d]pyrimidin-4-amine]
- basal EGABA (hippocampal neurons): −59.3±2.1 mV
- EC50 (NKCC1): > 100 µM
- time to first seizure-like event (SLE) (brain slices; vehicle=10.5±2.6): 11.3 ± 3.3 min
- time to late recurrent discharges (LRDs) (brain slices; vehicle=12.4±4.1): 28.4 ± 6.4 min

Reference: US20250281497A1, “FUSED AMINO PYRIMIDINE COMPOUNDS FOR TREATMENT OF SEIZURE DISORDERS” (Ovid Therapeutics Inc., priority 2024, published 2025)
